Assay results as given in patent EP1656933A1, “A medicinal composition comprising L-alanine for non-alcoholic fatty liver disease and/or non-alcoholic steatohepatitis and use therof” (Ajinomoto Co., Inc., priority 2004, dated 2006).

What was measured:
[1] = set-up: species or system Male GK rats; details: rat, in vivo
From the text: It has been supposed that the increase of the amount of fat intake in the last few decades is one of the causes of the recent increase of the number of patients with NASH. Therefore, the effect of L-alanine on the hepatic triglyceride contents in the high-fat diet (hereinafter HFD)-induced fatty liver rat model. Male GK rats (9 weeks of age, 6 rats per group) received HFD (containing 30% beef tallow) for 6 weeks.

[2] = test system: choline-deficient diet (hereinafter CDD) rat model; assay: Choline-deficient diet (CDD) rat model showing NASH-like pathological change in the liver; assay type: in vivo, Male Wistar rats
From the text: Male Wistar rats (7 weeks of age, 5 rats per group) received CDD (Dyets Co.) for 4 weeks. […] On the other hand, in the group of 5 rats received CDD mixed with 4% L-alanine for 4 weeks, one rat is normalized in liver weight (10.6g).

[3] = test system: HFD-induced fatty liver rat model; assay: High-fat diet (HFD)-induced fatty liver rat model, hepatic triglyceride contents; assay type: in vivo, Male GK rats; details: diet mixed with 4% L-alanine for 6 weeks; one rat of 6, in the level of SD group
Experimental: It has been supposed that the increase of the amount of fat intake in the last few decades is one of the causes of the recent increase of the number of patients with NASH. Therefore, the effect of L-alanine on the hepatic triglyceride contents in the high-fat diet (hereinafter HFD)-induced fatty liver rat model. Male GK rats (9 weeks of age, 6 rats per group) received HFD (containing 30% beef tallow) for 6 weeks. Triglyceride contents in the liver tissue was increased to 29.1 to 49.3 mg per gram of liver tissue, compared with those (14.1 to 24.2 mg) in the group fed with standard diet (containing 5% soy-been oil; hereinafter SD). Pioglitazone is a drug, which acts as an insulin-sensitizer for the patients with diabetes. Recent clinical pilot studies raise the possibility of clinical utility of pioglitazone for NASH. […] On the other hand, in the group of 6 rats received […] mixed with 4% L-alanine for 6 weeks, one rat is reduced in the liver triglyceride contents (19.6 mg) in the level of SD group. In addition, weight gain was reported as the main side effect in a pilot clinical study of piogritazone for NASH.

| SMILES | Body Weight (g) Pre [1] | liver weight ([2]; CDD mixed with 4% L-alanine for 4 weeks, one rat of 5 (normalized), CDD alone 14.5 to 20.0 g) | macrovesicular hepatic steatosis / histological fat accumulation in the liver ([2]; CDD mixed with drug for 4 weeks, histological examination, UDCA all of 5 rats, L-alanine the one rat of 5 with normalized liver weight) | Body Weight (g) Post (at 6 weeks) [1] | liver triglyceride contents [3] |
| --- | --- | --- | --- | --- | --- |
| CCc1ccc(CCOc2ccc(CC3SC(=O)NC3=O)cc2)nc1 (stereo not drawn) [pioglitazone, reference compound] | 222.1 ± 9.9 g | – | – | – | – |
| C[C@H](N)C(=O)O [L-alanine] | 219.8 ± 13.0 g | 10.6 g | not recognized | 331.8 ± 20.5 g | 19.6 mg |
